Reference: patent US20030092637A1, “Novel compounds” (priority 2000, published 2003)

System: transformed human vascular endothelial cells (ECV cells)
Experiment: Cellular growth assay (crystal violet), ECV cells
Format: cell-based
Experimental: Human embryonic lung fibroblasts (HFL-1 cells) and transformed endothelial cells (ECV cells) were obtained. Monolayer cultures were maintained on plastic in Eagle's MEM (Life Technologies, Ltd, Renfrewshire, UK). The medium was supplemented with 10% FCS (In Vitro AB, Stockholm, Sweden), 2 mM L-glutamine (ICN Biochemicals), penicillin (100 units/ml) and streptomycin (100 μg/ml) Cells were regularly checked for mycoplasma using GEN-PROBE Rapid detection system (Skafte & Claesson, Mölndal, Sweden).
In brief, cells were harvested by trypsinisation and seeded into 96-well microculture plates at 3000-5000 cells/well in Ham's F-12 medium (Sigma) supplemented with insulin (10 ng/ml), transferrin (25 ng/ml) and 10% FCS. After 4 h of plating, the cells were serum-starved for 24 h. […] Controls without growth factor and controls with different concentrations of DMSO were included. After 72, 96 and 120 h of growth, cells were fixed in glutaraldehyde, and cell nuclei were stained with crystal violet (Merck, Darmstadt, Germany). After washing and cell lysis for 24 h in 1% Triton X-100, the amount of bound dye was measured at 595 nm in a microplate photometer (Titertek multiscan). Results were corrected for DMSO effects.

Work on `NCCC[C@](N)(C(=O)O)C(F)F` [DFMO, α-difluoromethylornithine] yielded an inhibition at 5000 µM (Homo sapiens, Endothelial cell, 5 mM DFMO only, cells dependent on 1 μM spermin) of 5%.
For `Cc1ccc(C(=O)Nc2ccc(S(=O)(=O)O)c3cc(S(=O)(=O)O)cc(S(=O)(=O)O)c23)cc1NC(=O)c1cccc(NC(=O)Nc2cccc(C(=O)Nc3cc(C(=O)Nc4ccc(S(=O)(=O)O)c5cc(S(=O)(=O)O)cc(S(=O)(=O)O)c45)ccc3C)c2)c1` [suramin], the inhibition at 200 µM (Homo sapiens, Endothelial cell, 0.2 mM suramin, untreated cells as reference) was 20%.
In the case of `Oc1ccc2cc(O[C@@H]3OC[C@@H](O)[C@H](O)[C@H]3O)ccc2c1` [Xyl-2-Nap-6-OH, 6-hydroxy-2-naphthalenyl-β-D-xylopyranoside], the “inhibition of growth of ECV cells” value (0.05 mM Xyl-2-Nap-6-OH, untreated cells as reference) is reported as 9% and the “inhibition of growth of ECV cells” value (Xyl-2-Nap-6-OH alone (concentration not restated; 0.2 mM in the compared combination)) is reported as 31%.
